Patent US8192962B2, “Processes for detecting toxic substances” (Daikin Industries, Ltd., priority 2001, dated 2012)

Test system: Stress protein genes
Assay: DNA chip mRNA expression in yeast, stress protein genes (Table 6)
Assay type: cell-based, Saccharomyces cerevisiae S288C
Procedure, shortened: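 Value is the scanned fluorescence intensity ratio of exposed versus chemical-free cells. Log-phase S288C yeast in YPD at 25° C. received one toxic substance for two hours, dosed to slow growth without killing; Cy3/Cy5-labeled cDNA from oligo-dT-purified mRNA was hybridized to a whole-genome chip at 65° C.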

Oc1cc(Cl)c(Cl)cc1Cl [(6), 2,4,5-trichlorophenol]
The level of expressed mRNA in the presence of chemical substance/The level of expressed mRNA in the absence of chemical substance (yeast gene YAL005C): 1.6 | The level of expressed mRNA in the presence of chemical substance/The level of expressed mRNA in the absence of chemical substance (yeast gene YAL015C): 0.7 | The level of expressed mRNA in the presence of chemical substance/The level of expressed mRNA in the absence of chemical substance (yeast gene YBL075C): 0.8 | The level of expressed mRNA in the presence of chemical substance/The level of expressed mRNA in the absence of chemical substance (yeast gene YBL093C): 0.8 | The level of expressed mRNA in the presence of chemical substance/The level of expressed mRNA in the absence of chemical substance (yeast gene YBR044C): 1.0 | The level of expressed mRNA in the presence of chemical substance/The level of expressed mRNA in the absence of chemical substance (yeast gene YBR054W): 1.1 | The level of expressed mRNA in the presence of chemical substance/The level of expressed mRNA in the absence of chemical substance (yeast gene YBR067C): 1.1 | The level of expressed mRNA in the presence of chemical substance/The level of expressed mRNA in the absence of chemical substance (yeast gene YBR072W): 32.2 | The level of expressed mRNA in the presence of chemical substance/The level of expressed mRNA in the absence of chemical substance (yeast gene YBR126C): 2.9 | The level of expressed mRNA in the presence of chemical substance/The level of expressed mRNA in the absence of chemical substance (yeast gene YBR169C): 4.9 | The level of expressed mRNA in the presence of chemical substance/The level of expressed mRNA in the absence of chemical substance (yeast gene YCL035C): 5.1 | The level of expressed mRNA in the presence of chemical substance/The level of expressed mRNA in the absence of chemical substance (yeast gene YCR021C): 2.2 | The level of expressed mRNA in the presence of chemical substance/The level of expressed mRNA in the absence of chemical substance (yeast gene YCR060W): 3.3 | The level of expressed mRNA in the presence of chemical substance/The level of expressed mRNA in the absence of chemical substance (yeast gene YCR083W): 2.4 | The level of expressed mRNA in the presence of chemical substance/The level of expressed mRNA in the absence of chemical substance (yeast gene YDL022W): 2.1 | The level of expressed mRNA in the presence of chemical substance/The level of expressed mRNA in the absence of chemical substance (yeast gene YDL025C): 0.6 | The level of expressed mRNA in the presence of chemical substance/The level of expressed mRNA in the absence of chemical substance (yeast gene YDR033W): 6.7 | The level of expressed mRNA in the presence of chemical substance/The level of expressed mRNA in the absence of chemical substance (yeast gene YDR077W): 1.0 | The level of expressed mRNA in the presence of chemical substance/The level of expressed mRNA in the absence of chemical substance (yeast gene YDR098C): 1.1 | The level of expressed mRNA in the presence of chemical substance/The level of expressed mRNA in the absence of chemical substance (yeast gene YDR155C): 1.5 | The level of expressed mRNA in the presence of chemical substance/The level of expressed mRNA in the absence of chemical substance (yeast gene YDR258C): 2.4 | The level of expressed mRNA in the presence of chemical substance/The level of expressed mRNA in the absence of chemical substance (yeast gene YDR293C): 0.9 | The level of expressed mRNA in the presence of chemical substance/The level of expressed mRNA in the absence of chemical substance (yeast gene YDR436W): 1.1 | The level of expressed mRNA in the presence of chemical substance/The level of expressed mRNA in the absence of chemical substance (yeast gene YDR513W): 2.1 | The level of expressed mRNA in the presence of chemical substance/The level of expressed mRNA in the absence of chemical substance (yeast gene YDR519W): 1.3 | The level of expressed mRNA in the presence of chemical substance/The level of expressed mRNA in the absence of chemical substance (yeast gene YEL030W): 0.6 | The level of expressed mRNA in the presence of chemical substance/The level of expressed mRNA in the absence of chemical substance (yeast gene YEL039C): 1.5 | The level of expressed mRNA in the presence of chemical substance/The level of expressed mRNA in the absence of chemical substance (yeast gene YER042W): 1.6 | The level of expressed mRNA in the presence of chemical substance/The level of expressed mRNA in the absence of chemical substance (yeast gene YER057C): 1.6 | The level of expressed mRNA in the presence of chemical substance/The level of expressed mRNA in the absence of chemical substance (yeast gene YER103W): 1.7 | The level of expressed mRNA in the presence of chemical substance/The level of expressed mRNA in the absence of chemical substance (yeast gene YER125W): 0.7 | The level of expressed mRNA in the presence of chemical substance/The level of expressed mRNA in the absence of chemical substance (yeast gene YFL014W): 9.3 | The level of expressed mRNA in the presence of chemical substance/The level of expressed mRNA in the absence of chemical substance (yeast gene YFL016C): 1.3 | The level of expressed mRNA in the presence of chemical substance/The level of expressed mRNA in the absence of chemical substance (yeast gene YFL020C): 2.0 | The level of expressed mRNA in the presence of chemical substance/The level of expressed mRNA in the absence of chemical substance (yeast gene YFR052W): 3.2 | The level of expressed mRNA in the presence of chemical substance/The level of expressed mRNA in the absence of chemical substance (yeast gene YGL073W): 1.9 | The level of expressed mRNA in the presence of chemical substance/The level of expressed mRNA in the absence of chemical substance (yeast gene YGL115W): 1.2 | The level of expressed mRNA in the presence of chemical substance/The level of expressed mRNA in the absence of chemical substance (yeast gene YGL181W): 1.9 | The level of expressed mRNA in the presence of chemical substance/The level of expressed mRNA in the absence of chemical substance (yeast gene YGR088W): 1.3 | The level of expressed mRNA in the presence of chemical substance/The level of expressed mRNA in the absence of chemical substance (yeast gene YHL028W): 1.8 | The level of expressed mRNA in the presence of chemical substance/The level of expressed mRNA in the absence of chemical substance (yeast gene YHL046C): 0.8 | The level of expressed mRNA in the presence of chemical substance/The level of expressed mRNA in the absence of chemical substance (yeast gene YHR030C): 0.9 | The level of expressed mRNA in the presence of chemical substance/The level of expressed mRNA in the absence of chemical substance (yeast gene YHR057C): 1.3 | The level of expressed mRNA in the presence of chemical substance/The level of expressed mRNA in the absence of chemical substance (yeast gene YHR104W): 1.2 | The level of expressed mRNA in the presence of chemical substance/The level of expressed mRNA in the absence of chemical substance (yeast gene YIL011W): 0.7 | The level of expressed mRNA in the presence of chemical substance/The level of expressed mRNA in the absence of chemical substance (yeast gene YIL033C): 2.0 | The level of expressed mRNA in the presence of chemical substance/The level of expressed mRNA in the absence of chemical substance (yeast gene YIR037W): 2.7 | The level of expressed mRNA in the presence of chemical substance/The level of expressed mRNA in the absence of chemical substance (yeast gene YIR038C): 2.5 | The level of expressed mRNA in the presence of chemical substance/The level of expressed mRNA in the absence of chemical substance (yeast gene YJL128C): 1.3 | The level of expressed mRNA in the presence of chemical substance/The level of expressed mRNA in the absence of chemical substance (yeast gene YJL158C): 0.5 | The level of expressed mRNA in the presence of chemical substance/The level of expressed mRNA in the absence of chemical substance (yeast gene YJL159W): 1.8 | The level of expressed mRNA in the presence of chemical substance/The level of expressed mRNA in the absence of chemical substance (yeast gene YJL165C): 0.5 | The level of expressed mRNA in the presence of chemical substance/The level of expressed mRNA in the absence of chemical substance (yeast gene YJR045C): 1.2 | The level of expressed mRNA in the presence of chemical substance/The level of expressed mRNA in the absence of chemical substance (yeast gene YJR090C): 1.2 | The level of expressed mRNA in the presence of chemical substance/The level of expressed mRNA in the absence of chemical substance (yeast gene YKL161C): 2.0 | The level of expressed mRNA in the presence of chemical substance/The level of expressed mRNA in the absence of chemical substance (yeast gene YKL163W): 1.1 | The level of expressed mRNA in the presence of chemical substance/The level of expressed mRNA in the absence of chemical substance (yeast gene YKL164C): 1.4 | The level of expressed mRNA in the presence of chemical substance/The level of expressed mRNA in the absence of chemical substance (yeast gene YKL210W): 1.4 | The level of expressed mRNA in the presence of chemical substance/The level of expressed mRNA in the absence of chemical substance (yeast gene YKR053C): 1.1 | The level of expressed mRNA in the presence of chemical substance/The level of expressed mRNA in the absence of chemical substance (yeast gene YLL024C): 1.0 | The level of expressed mRNA in the presence of chemical substance/The level of expressed mRNA in the absence of chemical substance (yeast gene YLL026W): 1.9 | The level of expressed mRNA in the presence of chemical substance/The level of expressed mRNA in the absence of chemical substance (yeast gene YLL039C): 1.5 | The level of expressed mRNA in the presence of chemical substance/The level of expressed mRNA in the absence of chemical substance (yeast gene YLL060C): 1.4 | The level of expressed mRNA in the presence of chemical substance/The level of expressed mRNA in the absence of chemical substance (yeast gene YLR006C): 0.9 | The level of expressed mRNA in the presence of chemical substance/The level of expressed mRNA in the absence of chemical substance (yeast gene YLR109W): 2.1 | The level of expressed mRNA in the presence of chemical substance/The level of expressed mRNA in the absence of chemical substance (yeast gene YLR259C): 0.9 | The level of expressed mRNA in the presence of chemical substance/The level of expressed mRNA in the absence of chemical substance (yeast gene YML007W): 0.5 | The level of expressed mRNA in the presence of chemical substance/The level of expressed mRNA in the absence of chemical substance (yeast gene YML070W): 2.2 | The level of expressed mRNA in the presence of chemical substance/The level of expressed mRNA in the absence of chemical substance (yeast gene YMR021C): 2.2 | The level of expressed mRNA in the presence of chemical substance/The level of expressed mRNA in the absence of chemical substance (yeast gene YMR173W): 5.0 | The level of expressed mRNA in the presence of chemical substance/The level of expressed mRNA in the absence of chemical substance (yeast gene YMR186W): 1.3 | The level of expressed mRNA in the presence of chemical substance/The level of expressed mRNA in the absence of chemical substance (yeast gene YNL064C): 0.8 | The level of expressed mRNA in the presence of chemical substance/The level of expressed mRNA in the absence of chemical substance (yeast gene YNL160W): 5.8 | The level of expressed mRNA in the presence of chemical substance/The level of expressed mRNA in the absence of chemical substance (yeast gene YNL241C): 0.9 | The level of expressed mRNA in the presence of chemical substance/The level of expressed mRNA in the absence of chemical substance (yeast gene YNR076W): 1.2 | The level of expressed mRNA in the presence of chemical substance/The level of expressed mRNA in the absence of chemical substance (yeast gene YOL064C): 1.4 | The level of expressed mRNA in the presence of chemical substance/The level of expressed mRNA in the absence of chemical substance (yeast gene YOL161C): 1.0 | The level of expressed mRNA in the presence of chemical substance/The level of expressed mRNA in the absence of chemical substance (yeast gene YOR008C): 1.1 | The level of expressed mRNA in the presence of chemical substance/The level of expressed mRNA in the absence of chemical substance (yeast gene YOR009W): 0.9 | The level of expressed mRNA in the presence of chemical substance/The level of expressed mRNA in the absence of chemical substance (yeast gene YOR010C): 0.5 | The level of expressed mRNA in the presence of chemical substance/The level of expressed mRNA in the absence of chemical substance (yeast gene YOR027W): 1.6 | The level of expressed mRNA in the presence of chemical substance/The level of expressed mRNA in the absence of chemical substance (yeast gene YOR208W): 1.8 | The level of expressed mRNA in the presence of chemical substance/The level of expressed mRNA in the absence of chemical substance (yeast gene YPL059W): 1.3 | The level of expressed mRNA in the presence of chemical substance/The level of expressed mRNA in the absence of chemical substance (yeast gene YPL106C): 1.6 | The level of expressed mRNA in the presence of chemical substance/The level of expressed mRNA in the absence of chemical substance (yeast gene YPL140C): 0.3 | The level of expressed mRNA in the presence of chemical substance/The level of expressed mRNA in the absence of chemical substance (yeast gene YPL194W): 1.1 | The level of expressed mRNA in the presence of chemical substance/The level of expressed mRNA in the absence of chemical substance (yeast gene YPL223C): 1.5 | The level of expressed mRNA in the presence of chemical substance/The level of expressed mRNA in the absence of chemical substance (yeast gene YPL240C): 1.2 | The level of expressed mRNA in the presence of chemical substance/The level of expressed mRNA in the absence of chemical substance (yeast gene YPR005C): 0.8
